Measurements taken from patent US7419984B2, “Pyrimidines and uses thereof” (Cell Therapeutics, Inc., priority 2002, dated 2008).

The compounds below were run against T1, human LPAAT-β (Homo sapiens, UniProt O15120) (assay: LPAAT-β cell-free assay). Conditions: Sf9 cell membrane overexpressing recombinant LPAAT-β.
T1 construct: the full-length human LPAAT-β cDNA was amplified by PCR; poly-histidine tag (N); made in house; host or cells: Sf9 insect cells (baculovirus, pFastBac HTc); the membrane fraction was used as the enzyme
T1 sequence (O15120 24-278): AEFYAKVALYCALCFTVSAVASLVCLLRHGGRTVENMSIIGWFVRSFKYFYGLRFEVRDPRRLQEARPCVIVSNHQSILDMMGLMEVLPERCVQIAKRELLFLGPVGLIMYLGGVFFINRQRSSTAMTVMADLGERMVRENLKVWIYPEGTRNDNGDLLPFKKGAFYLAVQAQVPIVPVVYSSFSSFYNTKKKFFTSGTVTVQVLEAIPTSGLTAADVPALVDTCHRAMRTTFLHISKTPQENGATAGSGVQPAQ
Format: biochemical
Excerpt: For the construction of Baculovirus expression vectors, the full-length human LPAAT-β cDNA was amplified by PCR from the DNA template pCE9.LPAAT-β (West et al., DNA Cell Bid. 16.691-701 (1997)) using the primers 5′-[…] […] […] […]-3′ (olpb1F; SEQ ID NO:1) and 5′-[…] […] […]-3′ (olpb1R; SEQ ID NO:2). The ˜870 bp fragment generated was reamplified by PCR using the primers 5′ […] […] […] […] ATC-3′ (olpb2F; SEQ ID NO:3) and 5′-[…] […] […]-3′ (olpb1R; SEQ ID NO:2). The ˜890 bp fragment generated was then cleaved with Sal I and Xba I for insertion into pFastBac™ HTc vector (Life Technologies, Gaithersberg, M.d.) between the Sal I and Xba I sites for the generation of the plasmid pFB.LPAAT-β. This plasmid was then transformed into E. coli DH10Bac™ (Life Technologies, Gaithersberg, M.d.) for the generation of recombinant Bacmid DNA for transfection in HighFive (Invitrogen, San Diego, Calif.) or SF9 insect cells for the production of recombinant Baculovirus stocks using the protocol described in the Bac-to-Bac® Baculovirus Expression System (Life Technologies, Gaithersberg, M.d.), a eukaryotic expression system for generating recombinant baculovirus through site-specific transposition in E. coli. Viral stocks harvested from the transfected cells can then be used to infect fresh insect cells for the subsequence expression of LPAAT-β fusion protein with a poly-histidine tag and a myc-epitope near its N-terminus. The membrane fraction from these Sf9 cells would be the source of LPAAT enzyme.
For the preparation of membranes from Sf9 Cells, all steps are performed on ice or at 4° C. Sf9 cell pellets (˜10^8 cells) were thawed and resuspended in 1-2 ml of buffer A (20 mM Hepes, pH 7.5, 1 mM DTT, 1 mM EDTA, 20% w/v glycerol, 1 mM Benzamidine, 1 μg/ml soybean trypsin inhibitor (SBTI), 1 μug/ml pepstatin A) w/o DTT but with 1 mM Pefabloc. The cells were lysed by sonication using a Branson Sonifier at output=2, duty cycle=2, 10 pulses each at 10 s. with the tip of small sonicator probe submerged but not touching the walls. DTT was then added to 1 mM from a 1 M stock. The samples were centrifuged at 1500 rpm for 5 min. The low speed supernatant was saved and centrifuged (TLA 100.3 rotor, polycarbonate tubes, 2 ml/tube or 1.5 ml/tube minimum) at 100000×g for 1 hr. The high speed pellet was resuspend in Buffer A with a probe sonicator (10 pulses @ output #2 and duty cycle 20%) as a source of LPAAT enzyme.
LPAAT-β catalyzes the transfer of an acyl group from a donor such as acyl-CoA to LPA. The transfer of the acyl group from acyl-CoA to LPA leads to the release of free CoA, which can be reacted with the thiol reagent, 5,5′-dithiobis(2-nitrobenzoic acid) (DTNB). The reaction between DTNB and the free sulfhydryl group from CoA generates a yellow-colored product, 3-carboxylato-4-nitrothiophenolate (CNP), that absorbs at 413 nm. LPAAT-β derived from Sf9 cell membrane overexpressing LPAAT-β were resuspended in HEPES saline buffer (20 mM HEPES pH 7.5, 150 mM NaCl), 1 mg/ml BSA and 72 μl aliquots were distributed into 96-well microtiter plates. 8 μl of compound of interest at 200 μM dissolved in 100% DMSO was added into each well. […] of 1 mM 18:1-CoA and 1 mM sn-1-18:1 lysoPA was then added to each well to initiate the reaction and allowed to run at room temperature for 25 min. 100 μl of 1 mM DTNB in 100% ethanol was then added to each well to quench the reaction and for color development. The absorbance at 405 nm, measured using a spectrophotometer plate reader, is proportional to the activity of LPAAT-2 in the sample. This colorimetric assay was used for the high throughput screening of LPAAT inhibitors.
The radiometric assay was carried out in Sf9 cell membrane overexpressing LPAAT-β resuspended in HEPES-saline buffer, pH 7.5, 1 mg/ml BSA, 1 mM EDTA and 200 μM [^14C]18:1-CoA and 200 μM sn-1-18:1 lysoPA.

Compared with `CCOc1ccc(Br)cc1-c1cc(Nc2ccc(C(F)(F)F)cc2)ncn1` [Example 180, [6-(5-Bromo-2-ethoxy-phenyl)-pyrimidin-4-yl]-(4-trifluoromethyl-phenyl)-amine], `Nc1nc(Nc2ccc(C(F)(F)F)cc2)cc(-c2cc(Br)ccc2Cl)n1` [Example 189, 6-(5-Bromo-2-chloro-phenyl)-N*4*-(4-trifluoromethyl-phenyl)-pyrimidine-2,4-diamine] is 2-fold lower in IC50: 160 nM for the first, 79 nM for the second. The second is the more potent here.

First: Nc1nc(Nc2ccc3c(c2)OCO3)cc(-c2cc(Cl)ccc2Cl)n1 [Example 23, N*4*-Benzo[1,3]dioxol-5-yl-6-(2,5-dichloro-phenyl)-pyrimidine-2,4-diamine]
Second: Nc1nc(Nc2ccc(Cl)c(C(F)(F)F)c2)cc(-c2cc(Cl)ccc2Cl)n1 [Example 179, N*4*-(4-Chloro-3-trifluoromethyl-phenyl)-6-(2,5-dichloro-phenyl)-pyrimidin-2,4-diamine]
The IC50 of the first is 1.9-fold lower: 95 nM for the first, 180 nM for the second. The first is the more potent here.

Going from `CC(C)Oc1ccc(Br)cc1-c1cc(Nc2ccc(Cl)cc2)nc(N)n1` [Example 136, 6-(5-Bromo-2-isopropoxy-phenyl)-N*4*-(4-chloro-phenyl)-pyrimidine-2,4-diamine] to `Nc1nc(Nc2ccc(Cl)cc2)cc(-c2cc(Br)ccc2Cl)n1` [Example 187, 6-(5-Bromo-2-chloro-phenyl)-N*4*-(4-chloro-phenyl)-pyrimidine-2,4-diamine], the IC50 falls from 170 nM to 22 nM (7.7-fold).

Compared with `Nc1nc(Nc2ccc(Cl)cc2)cc(-c2ccccc2Oc2ccccc2)n1` [Example 152, N*4*-(4-Chloro-phenyl)-6-(2-phenoxy-phenyl)-pyrimidin-2,4-diamine], `COc1ccc(Cl)cc1-c1cc(Nc2ccc(Cl)cc2)nc(N)n1` [Example 2, 6-(5-Chloro-2-methoxy-phenyl)-N*4*-(4-chloro-phenyl)-pyrimidine-2,4-diamine] is 4.4-fold lower in IC50: 240 nM for the first, 54 nM for the second.

Compared with `CCOC(=O)c1cccc(Nc2cc(-c3cc(Cl)ccc3C)nc(N)n2)c1` [Example 114, 3-[2-Amino-6-(5-chloro-2-methyl-phenyl)-pyrimidin4-ylamino]-benzoic acid ethyl ester], `CNC(=O)c1cc(Nc2cc(-c3cc(Br)ccc3C)nc(N)n2)ccc1Br` [Example 78, 5-[2-Amino-6-(5-bromo-2-methyl-phenyl)-pyrimidin-4-ylamino]-2-bromo-N-methyl-benzamide] is 5-fold higher in IC50: 42 nM for the first, 210 nM for the second. The first is the more potent here.

Compared with `COc1ccc(Cl)cc1-c1cc(N)nc(Nc2ccc3cn[nH]c3c2)n1` [Example 35, 6-(5-Chloro-2-methoxyphenyl)-N*2*-(1H-indazol-6yl)-pyrimidine-2,4-diamine], `COc1ccc(Cl)cc1-c1cc(Nc2ccc3cn[nH]c3c2)nc(N)n1` [Example 3, 6-(5-Chloro-2-methoxy-phenyl)-N*4*-(1H-indazol-6-yl)-pyrimidine-2,4-diamine] is 10-fold lower in IC50: 800 nM for the first, 80 nM for the second.

First: Nc1nc(Nc2ccc(C(F)(F)F)cc2)cc(-c2cc(Br)ccc2OCc2ccccc2)n1 [Example 153, 6-(2-Benzyloxy-5-bromo-phenyl)-N*4*-(4-trifluoromethyl-phenyl)-pyrimidine-2,4-diamine]
Second: Nc1nc(Nc2ccc(Cl)cc2)cc(-c2cc(Br)ccc2OCc2ccc([N+](=O)[O-])cc2)n1 [Example 178, 6-[5-Bromo-2-(4-nitro-benzyloxy)-phenyl]-N*4*-(4-chloro-phenyl)-pyrimidine-2,4-diamine]
The IC50 of the first is 3.5-fold lower: 6 nM for the first, 21 nM for the second.

First: COc1ccc(Cl)cc1-c1nc(N)cc(Nc2ccc(Br)cc2)n1 [Example 36, N-(4-Bromo-phenyl)-2-(5-chloro-2-methoxy-phenyl)-pyrimidine4,6-diamine]
Second: COc1ccc(Cl)cc1-c1cc(Nc2ccc(Cl)cc2)nc(C)n1 [Example 38, [6-(5-Chloro-2-methoxy-phenyl)-2-methyl-pyrimidin-4-yl]-(4-chloro-phenyl)-amine]
The IC50 of the first is 160-fold higher: 8000 nM for the first, 50 nM for the second. The second is the more potent here.

Compared with `CCOc1ccc(Cl)cc1-c1cc(Nc2ccc([N+](=O)[O-])cc2)nc(N)n1` [Example 46, 6-(5-Chloro-2-ethoxy-phenyl)-N*4*-(4-nitro-phenyl)-pyrimidine-2,4-diamine], `CCOc1ccc(Br)cc1-c1cc(Nc2ccc(C(C)O)cc2)nc(N)n1` (stereo not drawn) [Example 134] is 11-fold higher in IC50: 10 nM for the first, 110 nM for the second.
